# Publication PMC8397403, “Physiologically Based Pharmacokinetic Modeling of Transporter-Mediated Hepatic Disposition of Imaging Biomarker Gadoxetate in Rats” (Molecular Pharmaceutics, 2021)
# Like-named read-outs stand apart in the source and are kept apart here. Marks after values point to notes of the source that are not given here.
# Tests used:
# [1] = Bottom-up IVIVE of gadoxetate transporter kinetic data / PBPK model; parameters: species or system rat
# Procedure: IVIVE of gadoxetate CLactive,u and CLpassive,u was performed by scaling these parameters to in vivo values (CLactive,u,in vivo and CLpassive,u,in vivo; mL/min/kg body weight) using a hepatocellularity of 120 × 10^6 cells/g liver,[34] and a liver weight (wliver) of 40 g/kg body weight,[38] as in eq 3. [drawing 3] 3
# A reduced PBPK model was developed to describe the PK of gadoxetate in rats; a permeability-limited liver model was implemented capturing relevant processes, as done previously.[6],[41] The compartments represent the blood, spleen, splanchnic organs, liver interstitial space, hepatocytes, and the rest of the body (ROB) vascular and extravascular spaces. The ROB compartment includes muscles, skin, bones, and fat among others. Details of model equations and physiological parameters values are reported in the Supporting Information, Sections 2, 3, and 5.
# Standard kinetic models used for MRI contrast agents generally describe the organs by using three compartments: plasma, interstitial, and intracellular spaces.[12],[42],[43] Gadoxetate distributes only in the extracellular space of all the organs; liver is the exception, where gadoxetate undergoes active uptake into the hepatocytes.[44] Therefore, in the gadoxetate PBPK model, the volume of all the compartments, except the blood and the liver, corresponded to the organ extracellular space, that in turn was considered to be composed of the blood within the organ and the interstitial space. For highly vascularized and perfused organs with fenestrated capillaries (e.g., liver), the exchange between the plasma and the interstitial space is generally considered to be fast.[12],[19] Therefore, for liver, spleen, and splanchnic compartments, the extracellular volumes were considered to be the sum of the blood within the organ and the interstitial space volumes. […] A permeability limitation between the vascular and interstitial space was, therefore, assumed for the ROB compartment, as shown in eq 5. [drawing 5] 5 cb, crob,v and crob,ev [μmol/L] are the gadoxetate concentration in blood and ROB vascular and extravascular compartments; Vrob,v and Vrob,ev [L] are the ROB vascular and extravascular compartment volumes, respectively; and PS [L/h] is the permeability surface product.
# To describe the gadoxetate-active uptake into the hepatocytes, a permeability-limited liver model was used, as shown in eq 6. [drawing 6] 6 inputsplan [μmol/h] represent the venous input from the splanchnic organs, while inputart [μmol/h] is the input from the hepatic artery; cliv,extr and cliv,cell [μmol/L] are the drug concentrations in the extracellular liver (tissue blood plus interstitial space) and in the hepatocytes, respectively; Vliv,extr and Vliv,int [L] are the extracellular and hepatocytes liver volumes; Qh [L/h] is the liver blood flow; Kliv,extr-b is the extracellular liver to blood partition coefficient; CLactive and CLpassive [L/h] are the active and passive clearances across the hepatocytes cell membrane; CLbiliary [L/h] is the clearance representing the excretion from the hepatocytes into the bile; and fu,liv,cell is the gadoxetate fraction unbound in the hepatocytes (obtained from the in vitro generated data fu,cell). Recent PBPK studies of hepatic transporter substrates have used a 5-compartment liver model[45] and the use of this particular liver model was also explored in the current PBPK modeling.
# All the parameters were initially obtained using literature values and in vitro experiments. Prospective transporter clearance IVIVE was performed with the aim of predicting the gadoxetate ΔR1 in blood, spleen, and liver after administration of gadoxetate alone (in the absence of an inhibitor). CLactive, CLpassive, and fu,liv,cell were obtained from the in vitro experimental values obtained in this study, as detailed in the section “Data Analysis and Quantitative Translation”. CLr was fixed to a literature value, as in Table 3. […]
# [2] = parameters: method as in PMID 32851735; settings: cited from earlier work; for Ex vivo relaxivity r1, blood: spleen assumed equal to blood
# [3] = scaled from in vitro, 120 × 10^6 cells/g liver, 40 g liver/kg
compound,measurement,setting,value
CCOc1ccc(C[C@@H](CN(CCN(CC(=O)[O-])CC(=O)[O-])CC(=O)[O-])N(CC(=O)[O-])CC(=O)[O-])cc1.[Gd+3].[H+].[H+] [gadoxetate],"CLbiliary, bottom-up scaled value","[1]; Monte Carlo mean, value assumed equal to CLpassive","0.014 ^a^, ^c L/h"
same,"CLactive, bottom-up scaled value","[1]; mean value calculated from the Monte Carlo analysis, rat 0.25 kg",0.23 ^a L/h
same,"PS, bottom-up scaled value","[1]; permeability surface product, Monte Carlo mean, value assumed equal to CLpassive","0.014 ^a^, ^c L/h"
same,"predicted in vivo active uptake clearance (CLactive,u,in vivo)",[1]; [3],14.7 mL/min/kg body weight
same,"predicted in vivo passive clearance (CLpassive,u,in vivo)",[1]; [3],0.93 mL/min/kg body weight
same,CLpassive,"[1]; scaled from the mean in vitro value in Table 2, fixed in PBPK model",0.014 L/h
same,"Ex vivo relaxivity r1, hepatocytes",[2]; 4.7 T,7.6 s^–1/mM
same,"Ex vivo relaxivity r1, blood",[2]; 4.7 T,6.4 s^–1/mM
same,"Ex vivo relaxivity r1, hepatocytes",[2]; 7 T,6 s^–1/mM
same,"Ex vivo relaxivity r1, blood",[2]; 7 T,6.2 s^–1/mM
